Molecular target: Glutamate receptor ionotropic, AMPA (Rattus norvegicus) (UniProt P19491+P19492+P19493+P19490)
Test: The compound was tested for the % displacement of [3H]AMPA binding to Ionotropic glutamate receptor AMPA in rat brain membranes at a concentration of 100 uM
Assay type: cell membranes

Displacement [%]	Structure (SMILES)
14	CC(=O)NC(Cc1cc([N+](=O)[O-])cc([N+](=O)[O-])c1O)C(=O)O (centres undefined)
99	O=[N+]([O-])c1cc2nc(O)c(O)nc2cc1[N+](=O)[O-]
26	COc1c(CC(NC(=O)OC(C)(C)C)C(=O)O)cc([N+](=O)[O-])cc1[N+](=O)[O-] (centres undefined)
20	NC(Cc1ccccc1OCC(=O)O)C(=O)O (centres undefined)
17	CC(C)(C)OC(=O)NC(Cc1cc([N+](=O)[O-])cc([N+](=O)[O-])c1O)C(=O)O (centres undefined)
66	COc1c(CC(N)C(=O)O)cc([N+](=O)[O-])cc1[N+](=O)[O-] (centres undefined)

Structure (SMILES)	Displacement [%]
NC(Cc1cc([N+](=O)[O-])cc([N+](=O)[O-])c1O)C(=O)O (centres undefined)	76
N[C@@H](Cc1cc([N+](=O)[O-])cc([N+](=O)[O-])c1O)C(=O)O	78
N[C@H](Cc1cc([N+](=O)[O-])cc([N+](=O)[O-])c1O)C(=O)O	58

Source: ChEMBL document CHEMBL1131503, “Design and synthesis of enantiomers of 3,5-dinitro-o-tyrosine: alpha-amino-3-hydroxy-5-methyl-4-isoxazolepropanoic acid (AMPA) receptor antagonists” (J Med Chem, 1998)
